From patent publication US20140187594A1, “DIPHENYL ETHER COMPOUNDS FOR THE TREATMENT OF LIVER, LUNG DISORDERS, DIABETIC COMPLICATIONS AND CARDIOVASCULAR DISEASES” (ORCHID CHEMICALS AND PHARMACEUTICALS LTD, priority 2010, published 2014)

What was measured:
DIO mice = assay: Insulin resistance (HOMA-IR) in diet induced obese mice; assay type: in vivo, C57BL/6 mice; details: 30 mg/kg for 28 days, FIG. 22
Experimental: The animal model with obesity with insulin resistance was developed by feeding 60 Kcal % high fat diet, which simulates several features of human obesity and insulin resistance. These features were treated as mentioned below. […] C57BL/6 male mice aged 6-8 weeks, and body weight ranges between 16-22 g were used. Animals were divided into two groups. First group (n=10) was treated as a normal control fed chow feed (Nutri Labe Rodent, Tetragon Chemie Pvt. Ltd., Bangalore) and the second group (n=25) fed 60 Kcal % high fat diet (HFD) (Research Diets, New Brunswick, N.J., Cat# D12492 with blue dye) for 120 days. At the end of induction period the animals were selected based on insulin resistance for further study. […] During this period, body weight and feed intake was recorded daily. […]
The parameters like Glucose, ALT, AST, TC, TG (Clinical chemistry analyzer Erba XL 300), insulin (Linco®-CA, Product code: EZRMI-13K) and TNFα (GE Healthcare, Amersham, UK. Product code: RPN2718) were measured using commercially available kits. NEFA was measured in serum using commercially available NEFA C kit (Product code No: 279-75401, Wako pure chemical industries ltd., Japan).

[1] = system: bleomycin induced lung fibrosis; assay: Bleomycin induced lung fibrosis (prophylactic); assay type: in vivo, C57BL/6 mice; details: 100 mg/kg p.o., 7 days before and 14 days after bleomycin; FIGS. 26 & 27
Experimental: Female C57BL/6 mice were used in this study. Animals were divided into four groups based on their body weight. To induce fibrosis bleomycin was administered at 0.1 U/animal (volume 50 μL) intratracheally to Group II (Disease control), Group III and Group IV, whereas Group I (Normal control) received only saline. The bleomycin challenged Group III and Group IV animals were treated with pentoxifylline (20 mg/kg p.o.) and compound of formula (A) (100 mg/kg p.o.) respectively, whereas Group I and the bleomycin challenged Group II animals received vehicle for 7 days before and 14 days after bleomycin administration. Body weight, feed and liquid intake and mortality rate were recorded. At the end of the study, animals were bled and plasma was stored in deep freezer (−80° C.) for biochemical parameters estimation. Then, the animals were sacrificed and lung tissue harvested and weighed. Right lung tissue was stored in deep freezer (−80° C.) for expression study and drug concentration analysis. The left lung tissues was fixed in formalin (10%) by slow infusion, then immersed and preserved in formalin (10%) for histopathology examination.

TNF-α = assay: LPS induced serum TNF-α in vivo; design: species or system mice; details: 50 mg/kg/day oral, 10 days, LPS 400 μg/kg IP, FIG. 39
Source text: (§1) Based on the results obtained in the in-vitro studies, it can be concluded that Compounds A, B and C are moderately potent inhibitors of Aldose Reductase. […] At the end of the assay, cell lysates were probed with anti iNOS antibody. Compound of formula (A) inhibits the iNOS production in these cells (FIG. 38). […] Since iNOS is implicated in the pathology of diabetic complications, it is anticipated that Compound of formula (A) will have a protective effect in the development of neovascularization contributed by elevated iNOS. Inhibits LPS induced TNF-α and IL-6 Inhibition In Vivo: This study was undertaken when the mice are at 10-11 weeks in age. On Day 0 their body weights were measured and they were assigned to two groups of 6 mice each to get similar average group body weights. They were orally administered with either vehicle (deionized water, Group 1) or Compound of formula (A) (50 mg/kg; Group 2) daily between 9:30 and 10:30 AM for 10 days. The body weights were measured on day 3, 7 and 10 of the study before administration of vehicle or drug. On Day 10, the mice were administered LPS at 400 μg/kg, IP. After 1 hour they were orally administered with either vehicle or Compound of formula (A). […]
Serum TNF-α concentration for each group of mice is determined using the Quantikine. […] The optical density of each well was read at 450 nm using the Microplate Reader (FIG. 39).

STZ induced diabetic rat = assay: Lenticular degeneration in STZ induced type I diabetic model; assay type: in vivo, Sprague Dawley rats; details: 100 mg/kg for 2 months, FIG. 41
Experimental: The animal model was developed by injecting STZ to Sprague Dawley rats and kept for 10 weeks to develop diabetic complications. Initially animals were in hyperglycemic and chronically, developed several feature of diabetes and diabetic complications, which simulates human diabetes and complications. These features were treated as mentioned below. Forty male Sprague Dawley rats aged 6-8 weeks, body weight range between 150-190 g was used for this study. The animals were divided into two groups. First group (n=10) was treated as a normal control injected with normal saline and the second group (n=30) was treated with STZ (50 mg/kg, i.v.), (Sigma. USA). Body weight was recorded every week and blood glucose every month using glucometer (Contour TS, Bayer Healthcare Ltd.). Every week eyes were examined for cataractous changes. After 10 weeks of diabetes induction animals were grouped based on blood glucose levels and the severity of cataract. The first group served as normal control (n=10). The diabetic animals with cataract were divided into two groups, second group served as disease control (n=9) and third group was treated with compound of formula (A) (n=10) at 100 mg/kg dose for 2 months. At the last day of experiment animals were kept for 12 hours fasting, next day blood was collected, plasma separated and used for biochemical analysis. […] Data Analysis: The values are expressed as Mean±SE. […]

IL-6 = assay: LPS induced serum IL-6 in vivo; design: species or system mice; details: 50 mg/kg/day oral, 10 days, LPS 400 μg/kg IP, FIG. 40
Source text: as §1
Serum IL-6 concentration for each group of mice is determined using the Quantikine Mouse IL-6 Immunoassay kit. […] The optical density of each well was read at 450 nm Microplate Reader (FIG. 40).

## COC(=O)[C@@H](N)Cc1ccc(Oc2ccc(CC3SC(=O)NC3=O)cc2)cc1 (stereo partly drawn) [Compound of formula (A), Methyl(2S)-2-amino-3-(4-{4-[(2,4-dioxo-1,3-thiazolidin-5-yl)methyl]phenoxy}phenyl)propanoate]
DIO mice
  HOMA-IR: improvement in HOMA-IR
[1]
  lung fibrosis formation (histopathology): significantly prevents fibrosis formation
TNF-α
  Serum TNF-α level: reduction in TNF-α
STZ induced diabetic rat
  lenticular degeneration: significant improvement in lenticular degeneration
IL-6
  Serum IL-6 level: reduction
